From PMC6753678, “Fueling Open Innovation for Malaria Transmission-Blocking Drugs: Hundreds of Molecules Targeting Early Parasite Mosquito Stages” (Frontiers in Microbiology, 2019)
pIC50: −log10 of the molar value.

Legend:
HepG2 cells = experiment: HepG2 cytotoxicity assay; details: HepG2 cytotoxicity unified across screens; >25 set to 25.00
Outline: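 HepG2 cells, 2,500 per well in MEM with 10% FBS and 1% NEAA, exposed to compounds for 48 h at 37°C, 5% CO2. Viability read by fluorescence; percent inhibition relative to 50 μM doxorubicin and DMSO controls.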

[1] = system: P. falciparum late stage (stages IV-V) gametocytes; set-up: method as in Almela et al 2016; details: P. falciparum late stage gametocyte ATP assay, TCAMS screen; ref Almela et al 2016; read-out: Pf GCT ATP IC50; cited from earlier work
[2] = system: P. falciparum late stage (stages IV-V) gametocytes; experiment: P. falciparum late stage gametocyte ATP depletion assay (Pf GC-ATP); details: 1: YES; 0: NO; >10-fold selectivity over cytotoxicity

SMILES: CCCCN1CCN(CCCCNc2c3ccccc3nc3ccccc23)CC1.Cl [TCMDC-137569]
- Unified cytotox (HepG2 cells): 12.68 µM
- pIC50 [1]: 5.92
- Is compound selective in assay? Pf GC-ATP active? [2]: 1 (1: YES)

SMILES: COc1ccc2nc3cc(Cl)ccc3c(NCCCCN3CCNCC3)c2c1.Cl [TCMDC-137578]
- Unified cytotox (HepG2 cells): 5.00 µM
- pIC50 [1]: 6.18
- Is compound selective in assay? Pf GC-ATP active? [2]: 0 (0: NO)

SMILES: Br.CCCCC(NCC)c1ccc(OCCOc2ccc(C(CCCC)NCC)cc2)cc1 (stereo not drawn) [TCMDC-137612]
- Unified cytotox (HepG2 cells): 6.10 µM
- pIC50 [1]: 6.38
- Is compound selective in assay? Pf GC-ATP active? [2]: 1 (1: YES)

SMILES: CCCCCCNC(=N)c1ccc(OCCCCCOc2ccc(C(=N)NCCCCCC)cc2)cc1.Cl [TCMDC-137619]
- Unified cytotox (HepG2 cells): 5.39 µM
- pIC50 [1]: 6.51
- Is compound selective in assay? Pf GC-ATP active? [2]: 1 (1: YES)

SMILES: CCCCCCC(N)c1ccc(OCCCOc2ccc(C(N)CCCCCC)cc2)cc1.Cl (stereo not drawn) [TCMDC-137621]
- Unified cytotox (HepG2 cells): 1.90 µM
- pIC50 [1]: 7.27
- Is compound selective in assay? Pf GC-ATP active? [2]: 1 (1: YES)

SMILES: CCCCCOc1ccc(C(=NC)N(CCCCC)CCCCC)c2ccccc12.I [TCMDC-137703]
- Unified cytotox (HepG2 cells): 6.30 µM
- pIC50 [1]: 6.05
- Is compound selective in assay? Pf GC-ATP active? [2]: 0 (0: NO)

SMILES: CCOc1ccc2ccccc2c1CNCCCCCCNCc1c(OCC)ccc2ccccc12.CS(=O)(=O)O [TCMDC-137791]
- Unified cytotox (HepG2 cells): 1.75 µM
- pIC50 [1]: 6.15
- Is compound selective in assay? Pf GC-ATP active? [2]: 0 (0: NO)

SMILES: Br.c1cc(C2=NC3CCCCC3N2)ccc1OCCCCCOc1ccc(C2=NC3CCCCC3N2)cc1 (stereo not drawn) [TCMDC-137802]
- Unified cytotox (HepG2 cells): 3.74 µM
- pIC50 [1]: 6.55
- Is compound selective in assay? Pf GC-ATP active? [2]: 1 (1: YES)

SMILES: COc1ccc2c(c1CNCCCCCCNCc1c(OC)ccc3c1CCCC3)CCCC2 [TCMDC-137817]
- Unified cytotox (HepG2 cells): 3.83 µM
- pIC50 [1]: 6.38
- Is compound selective in assay? Pf GC-ATP active? [2]: 0 (0: NO)

SMILES: COc1cc2ccccc2c(OC)c1CNCCCCCCNCc1c(OC)cc2ccccc2c1OC.CS(=O)(=O)O [TCMDC-137843]
- Unified cytotox (HepG2 cells): 4.25 µM
- pIC50 [1]: 6.49
- Is compound selective in assay? Pf GC-ATP active? [2]: 1 (1: YES)

SMILES: CN(CCCNCc1cccc2ccccc12)CCCNCc1cccc2ccccc12.Cl [TCMDC-137905]
- Unified cytotox (HepG2 cells): 5.72 µM
- pIC50 [1]: 6.64
- Is compound selective in assay? Pf GC-ATP active? [2]: 1 (1: YES)

SMILES: COCCCNC(=S)NN=C(C)c1ccccn1 [TCMDC-137907]
- Unified cytotox (HepG2 cells): 17.00 µM
- pIC50 [1]: 6.80
- Is compound selective in assay? Pf GC-ATP active? [2]: 1 (1: YES)

SMILES: Cl.c1ccc2c(CNCCCN3CCN(CCCNCc4c5ccccc5cc5ccccc45)CC3)c3ccccc3cc2c1 [TCMDC-137909]
- Unified cytotox (HepG2 cells): 6.28 µM
- pIC50 [1]: 6.96
- Is compound selective in assay? Pf GC-ATP active? [2]: 1 (1: YES)

SMILES: Cl.c1ccc2c(NCCCCCCNc3ccnc4ccccc34)ccnc2c1 [TCMDC-137913]
- Unified cytotox (HepG2 cells): 16.40 µM
- pIC50 [1]: 6.02
- Is compound selective in assay? Pf GC-ATP active? [2]: 1 (1: YES)

SMILES: Cl.c1ccc2c(c1)cc(CNCCCN1CCN(CCCNCc3cc4ccccc4c4ccccc34)CC1)c1ccccc12 [TCMDC-137914]
- Unified cytotox (HepG2 cells): 13.70 µM
- pIC50 [1]: 5.95
- Is compound selective in assay? Pf GC-ATP active? [2]: 1 (1: YES)

SMILES: Cl.c1ccc(CN2CCN(CCCCNc3c4ccccc4nc4ccccc34)CC2)cc1 [TCMDC-138009]
- Unified cytotox (HepG2 cells): 9.92 µM
- pIC50 [1]: 6.10
- Is compound selective in assay? Pf GC-ATP active? [2]: 1 (1: YES)

SMILES: COc1ccc2nc3cc(Cl)ccc3c(NCCCCNc3c4ccc(Cl)cc4nc4ccc(OC)cc34)c2c1 [TCMDC-138218]
- Unified cytotox (HepG2 cells): 14.47 µM
- pIC50 [1]: 6.70
- Is compound selective in assay? Pf GC-ATP active? [2]: 1 (1: YES)

SMILES: Cc1nc(-c2cccc(Nc3ccnc4cc(-c5nccs5)ccc34)c2)no1.Cl [TCMDC-138334]
- Unified cytotox (HepG2 cells): 7.62 µM
- pIC50 [1]: 6.52
- Is compound selective in assay? Pf GC-ATP active? [2]: 1 (1: YES)

SMILES: Cc1cc(NCCc2ccccc2)nc(NC(=N)Nc2ccccc2Cl)n1 [TCMDC-138370]
- Unified cytotox (HepG2 cells): 13.60 µM
- pIC50 [1]: 5.31
- Is compound selective in assay? Pf GC-ATP active? [2]: 0 (0: NO)
